These results are taken from publication PMC10753699, “Synthesis of Some New 1,3,4-Oxadiazole Derivatives and Evaluation of Their Anticancer Activity” (ACS Omega, 2023).

Data set [1] concerns C6 rat glioma cell line. Nature of the data set: MTT cell viability / cytotoxicity on C6. It counts as cell-based. The following applies: mean ± S.D. of three determinations. The procedure:
(§1) The MTT (3-(4,5-dimethylthiazol-2-yl)-2,5-diphenyltetrazolium bromide) method was applicated to assess the cell viability of L929, C6 and A549 cell lines against the tested compounds according to the reported data.[51] In 96-well plates with a flat bottom, the A549, C6, and L929 cells were cultivated at a density of 5 × 10^3 cells per well. […] After addition, they were incubated for a full day in culture wells. Following the incubation period, 20 μL of phosphate-buffered saline (PBS) (Gibco, Paisley, UK) containing 5 mg/mL MTT powder (Sigma-Aldrich, St. Louis, MO, USA) was added to each well. The medium was taken out of the plate and replaced with 100 μL of DMSO in each well to dissolve the dye. This was left for 2 to 4 h under the same conditions and then left for 10 min. At the conclusion of the procedure, purple formazan, the reduction product of the MTT agent, was formed by the mitochondrial dehydrogenase enzyme of intact cells. A microtiter plate reader (BioTek Plate Reader, Winooski, VT, USA) was used to measure the cells at 540 nm. Cell viability was measured as a percentage and contrasted with that of the cells in the control group. Half-maximal inhibitory concentration 50 (IC50) values were determined by repeating each concentration in three wells and identifying the drug concentrations that decreased the absorbance to 50% of control values. The medium control served as the basis for calculating the percentage of viable cells.

In data set [2] the test system is A549 cells. Put plainly: Cell cycle analysis by flow cytometry. The following applies: A549, 24 h incubation. It counts as cell-based, human. Here is the method:
Following a 24 h incubation period with the compounds, a cell cycle analysis measurement methodology was implemented in compliance with the manufacturer’s instructions for A549 cells (BD, Biosciences). Next, the cells were immersed in citrate buffer for a short while. At room temperature, the cells were centrifuged for 5 min at 400 g. After the supernatant was decanted, 250 μL of solution A was added to the pellet, and it was allowed to sit at room temperature for 10 min. Solution B (200 μL) was then added, carefully mixed, and incubated at room temperature for 10 min. Solution C (200 μL) was then added. It was gently mixed, allowed to stand at 4 °C for 10 min in the dark, and then examined using BD Bioscience’s MODFID software on a flow cytometer. This method was applied in our previous study.[54]

The subject of data set [3] is L929 murine fibroblast cell line. Put plainly: MTT cell viability / cytotoxicity on L929 (healthy cells). It counts as cell-based, mouse. The following applies: Mus musculus, L929, L929 healthy cell line, mean ± S.D. of three determinations. The procedure:
(§2) In 75 cm^2 sterile plastic tissue culture flasks, the human lung adenocarcinoma A549 and the mouse fibroblast L929 cell lines were cultured in 90% RPMI (Sigma, Deisenhofen, Germany) media supplemented with 10% (v/v) FBS (Gibco, Paisley, UK) and adherent monolayers of penicillin/streptomycin (100 units/mL) from Gibco, Paisley, UK. These cells were cultured at 37 °C in an environment that was humidified and contained 5% CO2.
as §1

Data set [4] deals with T1, MMP-9 enzyme (Homo sapiens, UniProt P14780).
T1 construct: purchased EnzoLife Sciences Inc. (Farmingdale, New York, NY, USA)
T1 sequence (P14780 107-444 limits assumed): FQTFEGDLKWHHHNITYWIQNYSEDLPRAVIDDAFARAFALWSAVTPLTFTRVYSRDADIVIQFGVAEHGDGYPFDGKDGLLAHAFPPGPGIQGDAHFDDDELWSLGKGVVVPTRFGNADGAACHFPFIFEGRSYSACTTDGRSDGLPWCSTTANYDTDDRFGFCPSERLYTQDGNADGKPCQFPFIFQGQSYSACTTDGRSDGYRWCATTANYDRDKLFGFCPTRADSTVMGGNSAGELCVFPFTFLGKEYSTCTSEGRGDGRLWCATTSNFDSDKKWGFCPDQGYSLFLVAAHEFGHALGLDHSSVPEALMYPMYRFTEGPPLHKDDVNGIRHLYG
Put plainly: MMP-9 colorimetric inhibition assay. It counts as biochemical. The following applies: for inhibition at 100 µg/mL: at 100 μg/mL.

The test system of data set [5] is caspase-3. Nature of the data set: Caspase-3 activation in A549 cells. It counts as cell-based, human. The following applies: A549, IC50 of the compounds, 24 h. Here is the method:
The Spectrofluorometric Caspase-3 Assay kit (BD Pharmingen, Franklin Lakes, NJ) was used to assess the activation of caspase-3. The purpose of the kit was to measure the early indicator of cells going through apoptosis, known as caspase-3 or the DEVD-cleaving activity. First, 1 × 10^6 cells/mL of cells were resuspended in cold cell lysis buffer, rinsed with PBS, and then allowed to sit on ice for 30 min. […] In each reaction, a well containing 0.2 mL of 1 x HEPES buffer was filled with […] of reconstituted AcDEVD-AMC, a synthetic tetrapeptide fluorogenic substrate for caspase-3 activity. Each reaction/well received 20 μL of cell lysate. The reaction mixtures were incubated at 37 °C for 1 h. Using a microplate reader (Perkin-Elmer/Victor/X3) with an excitation wavelength of 380 nm and an emission wavelength of 460 nm, the amount of AMC released from Ac-DEVD-AMC was quantified. When compared with controls, apoptotic cell lysates containing active caspase-3 produced a significant emission. […] For all doses, duplicate wells were used. This experiment was performed according to Yurttaş et al.[52]

In data set [6] the test system is A549 cells. Nature of the data set: Mitochondrial membrane depolarization (JC-1, flow cytometry). The following applies: A549, IC50 concentration, 24 h. It counts as cell-based, human. Here is the method:
Staining of cells with JC-1 was realized according to the manufacturer’s recommendations of BD, Pharmingen Flow cytometry kit. […] For this purpose, cells were seeded at an optimal density in six-well plates (not exceeding 1 × 10^6/mL cells). The cells were then incubated with the substances to be tested at the appropriate concentration and time. After the treatment, each cell suspension was taken into a 15 mL polystyrene centrifuge tube and the cells were centrifuged at 400g for 5 min and removed from the supernatant. 0.5 mL of a freshly prepared working solution was added to each pellet, and the solution was vortexed. The test cells were soaked in a JC-1 working solution at 37 °C for 10–15 min, and the cells were washed twice. In the first wash, 2 mL of 1X assay buffer was added and the cells were suspended sensitively. Then, the cells were centrifuged at 400g for 5 min and the supernatant was removed, carefully. In the second wash, 1 mL of 1X assay buffer was added and vortexed. After the cells were centrifuged at 400g for 5 min, each cell pellet was suspended in 0.5 mL 1X assay buffer and vortexed. Finally, the cell was analyzed by a flow cytometer.

Data set [7] deals with A549 cells. Nature of the data set: Early/late apoptosis by Annexin V-FITC/PI flow cytometry. It counts as cell-based, human. The following applies: A549, IC50 dose, 24 h incubation. In general terms: A flow cytometer gives signals particle by particle.
Procedure: Phosphatidylserine externalization, a marker of early apoptosis, was assessed using the FITC Annexin V apoptosis detection kit (BD Pharmingen, San Jose, CA, USA) on a BD FACSAria flow cytometer. Following their collection, the A549 and L929 cells were twice washed in ice-cold PBS before being resuspended in 100 μL of binding buffer. The cells were treated with a volume of 5 μL (5 μg/mL) of Annexin V-FITC and PI, and they were incubated for 15 min at room temperature (20–25 °C) in the dark. Following that, 400 μL of binding buffer was added to the combination samples, and FACSDiva version 6.1.1 was used to analyze the samples on a BD FACSAria flow cytometer.
Data set [8] concerns A549 human lung cancer cell line. Nature of the data set: MTT cell viability / cytotoxicity on A549. It counts as cell-based. The following applies: Homo sapiens, A549, A549 cell line, MTT, mean ± S.D. of three determinations. The procedure:
as §2, §1

By IC50 is commonly meant the concentration needed to halve the response being measured. A lower IC50 goes with greater potency in that assay. As usually defined, the melting point is the temperature of the solid-liquid transition. The term inhibition denotes the percentage by which the read-out fell short of the control. As for `CC(=O)Nc1ccccc1OCc1nnc(SCC(=O)Nc2nc3ccc(F)cc3s2)o1` [Compound 4f, 2-[(5-((2-Acetamidophenoxy)methyl)-1,3,4-oxadiazol-2-yl)thio]-N-(6-fluorobenzothiazol-2-yl)acetamide], the melting point fell in the range of 207 to 209 °C. The IC50 in [1] came to 13 ± 3.72 µM. Moreover, in data set [2], the “% S” value was 0.0%, the G0/G1% came to 63.53% and the G2/M % amounted to 36.47%. This compound also registered an IC50 in [3] of 19.4 ± 0.89 µM. Also, in [4], the IC50 stood at 24.5 ± 2.12 µM and the inhibition at 100 µg/mL is greater than 75%. Besides, in [5], the “% (+): caspase-3 activity positive cells” value is 3.4% and the “% (−): caspase-3 activity negative cells” value came out at 97.1%. Also, in [6], the “mitochondrial membrane depolarization %” value was 13.03% and the “mitochondrial membrane polarization %” value came out at 85.97%. In addition, in data set [7], the “Q1: necrotic cells” value was determined as 26.25%, the “Q2: late apoptotic cells” value worked out at 6.7%, the “Q3: viable cells” value came to 58.53% and the “Q4: early apoptotic cells” value came out at 8.51%. In data set [8], this compound displayed an IC50 of 6.62 ± 0.32 µM.

`CC(=O)Nc1ccccc1OCc1nnc(SCC(=O)Nc2ccccc2)o1` [Compound 4h, 2-[(5-((2-Acetamidophenoxy)methyl)-1,3,4-oxadiazol-2-yl)thio]-N-phenylacetamide] came in with a melting point of 188 to 191 °C. In data set [1], the IC50 is greater than 1000 µM. Further, in data set [2], the “% S” value is listed as 0.0%, the G0/G1% is on record as 89.66% and the G2/M % is reported as 10.34%. For the same compound, half-maximal inhibition in data set [3] (IC50) required 31.4 ± 1.76 µM. Moreover, in data set [4], half-maximal inhibition (IC50) was put at 1.65 ± 0.21 µM and the inhibition at 100 µg/mL is greater than 75%. Further, in data set [5], the “% (+): caspase-3 activity positive cells” value is on record as 2.7% and the “% (−): caspase-3 activity negative cells” value worked out at 97.5%. Moreover, in [6], the “mitochondrial membrane depolarization %” value is given as 8.75% and the “mitochondrial membrane polarization %” value is on record as 90.74%. In data set [7], the “Q1: necrotic cells” value is recorded as 26.94%; the “Q2 + Q4: early and late apoptotic cells” value stood at 19.20%; the “Q2: late apoptotic cells” value is on record as 7.28%; the “Q3: viable cells” value came to 53.94%. In addition, the “Q4: early apoptotic cells” value in data set [7] stood at 11.84%. The compound further registered an IC50 in data set [8] of less than 0.14 µM.
